Data from ChEMBL document CHEMBL1201862, “PubChem BioAssay data set” (2004).
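Exposure lasted 48 hours, with cells grown in 96-well plates and compounds tested at five concentrations. At the GI50, growth is halved.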 Active and inactive are the calls of the source. Rule as the data show it: active = GI50 up to about 1.1 µM and inactive = higher.

How the values were obtained:
Assay in all cases: growth of human tumour cells (NCI), 48 h
A498 = tested on: A498
COLO 205 = tested on: COLO 205
HCT-116 = tested on: HCT-116
HOP-92 = tested on: HOP-92
K562 = tested on: K562
M14 = tested on: M14
MCF7 = tested on: MCF7
MDA-N = tested on: MDA-N
MOLT-4 = tested on: MOLT-4
NCI-H460 = tested on: NCI-H460
NCI/ADR-RES = tested on: NCI/ADR-RES
SF-268 = tested on: SF-268
SF-539 = tested on: SF-539
SK-MEL-28 = tested on: SK-MEL-28
SNB-75 = tested on: SNB-75
SK-MEL-5 = tested on: SK-MEL-5
Malme-3M = tested on: Malme-3M

SMILES | GI50 (A498) | GI50 (COLO 205) | GI50 (HCT-116) | GI50 (HOP-92) | GI50 (K562) | GI50 (M14) | GI50 (MCF7) | GI50 (MDA-N) | GI50 (MOLT-4) | GI50 (NCI-H460) | GI50 (NCI/ADR-RES) | GI50 (SF-268) | GI50 (SF-539) | GI50 (SK-MEL-28) | GI50 (SNB-75) | GI50 (SK-MEL-5) | GI50 (Malme-3M)
Cc1cn(CCCCCOC(=O)NC(CCCNC(N)=O)C(=O)O)c(=O)[nH]c1=O (stereo unspecified) | > 100 µM (inactive) | > 100 µM (inactive) | > 100 µM (inactive) | > 100 µM (inactive) | > 100 µM (inactive) | > 100 µM (inactive) | > 100 µM (inactive) | > 100 µM (inactive) | > 100 µM (inactive) | > 100 µM (inactive) | > 100 µM (inactive) | > 100 µM (inactive) | > 100 µM (inactive) | > 100 µM (inactive) | > 100 µM (inactive) |  | 
Nc1nn2c(=O)c3ccccc3nc2s1 | > 100 µM (inactive) | 35.4 µM (inactive) | 57.3 µM (inactive) | > 100 µM (inactive) | 28.4 µM (inactive) | 28.6 µM (inactive) | 50.1 µM (inactive) | 38.3 µM (inactive) | 23.3 µM (inactive) | > 100 µM (inactive) | > 100 µM (inactive) | 38.8 µM (inactive) | 43.9 µM (inactive) | > 100 µM (inactive) | > 100 µM (inactive) | 56 µM (inactive) | 
CCOC(=O)/C=C/CCC(C)(C)COC(C)=O |  | > 10 µM (inactive) | > 10 µM (inactive) | > 10 µM (inactive) | > 10 µM (inactive) | > 10 µM (inactive) | > 10 µM (inactive) | > 10 µM (inactive) | > 10 µM (inactive) | > 10 µM (inactive) | > 10 µM (inactive) | > 10 µM (inactive) | > 10 µM (inactive) | > 10 µM (inactive) | > 10 µM (inactive) | > 10 µM (inactive) | 
Cc1ccc(CC[PH](=O)CCc2ccc(C)nc2)cn1 |  | > 100 µM (inactive) | > 100 µM (inactive) | > 100 µM (inactive) | > 100 µM (inactive) | > 100 µM (inactive) | > 100 µM (inactive) | > 100 µM (inactive) | > 100 µM (inactive) | > 100 µM (inactive) | > 100 µM (inactive) | > 100 µM (inactive) | > 100 µM (inactive) | > 100 µM (inactive) |  | > 100 µM (inactive) | > 100 µM (inactive)
COC(=O)C1(c2cc3ccccc3n2S(=O)(=O)c2ccccc2)CC2C=CC1NC2 (stereo unspecified) | 3.09 µM (inactive) | 2.17 µM (inactive) | 2.23 µM (inactive) | 1.52 µM (inactive) | 1.77 µM (inactive) | 1.79 µM (inactive) | 1.5 µM (inactive) | 2.13 µM (inactive) | 1.62 µM (inactive) | 3.11 µM (inactive) | 2.42 µM (inactive) |  | 1.95 µM (inactive) | 2.67 µM (inactive) | 3.8 µM (inactive) | 6.12 µM (inactive) | 
COc1cc2c3c(c1Oc1nnnn1-c1ccccc1)-c1c(ccc4c1OCO4)C[C@H]3N(C)CC2 |  | 32.2 µM (inactive) | 31.7 µM (inactive) | 24.4 µM (inactive) | 29.6 µM (inactive) | 18.7 µM (inactive) |  | 21.9 µM (inactive) | 35.7 µM (inactive) | 36.9 µM (inactive) | 35.7 µM (inactive) | 48.9 µM (inactive) | > 100 µM (inactive) | 17.8 µM (inactive) | 22.6 µM (inactive) | 29.5 µM (inactive) | 18.2 µM (inactive)
ClCc1nc2cc(Cl)ccc2o1 |  | 2.65 µM (inactive) | 6.97 µM (inactive) | 1.91 µM (inactive) | 2.56 µM (inactive) | 4.31 µM (inactive) | 2.47 µM (inactive) | 5.71 µM (inactive) | 2.19 µM (inactive) | 12.5 µM (inactive) | 20.3 µM (inactive) | 7.98 µM (inactive) | 5.51 µM (inactive) | 4.44 µM (inactive) | 10.9 µM (inactive) | 11.9 µM (inactive) | 11.5 µM (inactive)
CCc1cc2c(oc3c4ccccc4ccc23)c(=O)[nH]1 |  |  | > 10 µM (inactive) | > 10 µM (inactive) | > 10 µM (inactive) | > 10 µM (inactive) | > 10 µM (inactive) | > 10 µM (inactive) | > 10 µM (inactive) | > 10 µM (inactive) |  | > 10 µM (inactive) | > 10 µM (inactive) |  | > 10 µM (inactive) |  | 
COc1cc2c(c(OC)c1OC)C(=O)CC2N (stereo unspecified) | > 100 µM (inactive) | > 100 µM (inactive) | > 100 µM (inactive) | > 100 µM (inactive) | > 100 µM (inactive) | > 100 µM (inactive) | > 100 µM (inactive) |  | > 100 µM (inactive) | > 100 µM (inactive) | > 100 µM (inactive) | > 100 µM (inactive) | > 100 µM (inactive) | > 100 µM (inactive) | > 100 µM (inactive) | > 100 µM (inactive) | > 100 µM (inactive)
O=C1CCCC2(c3ccccc3)Nc3ccccc3N12 (stereo unspecified) |  | > 100 µM (inactive) | > 100 µM (inactive) | > 100 µM (inactive) | 82.6 µM (inactive) | > 100 µM (inactive) | > 100 µM (inactive) | > 100 µM (inactive) | > 100 µM (inactive) | 78.5 µM (inactive) | > 100 µM (inactive) | > 100 µM (inactive) | > 100 µM (inactive) | > 100 µM (inactive) | > 100 µM (inactive) | > 100 µM (inactive) | > 100 µM (inactive)
CC1=Nc2c(C#N)ncn2N=C(C)C1 | > 100 µM (inactive) | > 100 µM (inactive) | > 100 µM (inactive) | > 100 µM (inactive) | > 100 µM (inactive) | > 100 µM (inactive) | > 100 µM (inactive) | > 100 µM (inactive) | > 100 µM (inactive) | > 100 µM (inactive) | > 100 µM (inactive) | > 100 µM (inactive) | > 100 µM (inactive) | > 100 µM (inactive) | > 100 µM (inactive) | > 100 µM (inactive) | 
COC1OC(C(=O)O)C2OC(C)(C)OC12 (stereo unspecified) |  | > 100 µM (inactive) | > 100 µM (inactive) | > 100 µM (inactive) | > 100 µM (inactive) | > 100 µM (inactive) | > 100 µM (inactive) | > 100 µM (inactive) | > 100 µM (inactive) | > 100 µM (inactive) | > 100 µM (inactive) | > 100 µM (inactive) | > 100 µM (inactive) | > 100 µM (inactive) | > 100 µM (inactive) | > 100 µM (inactive) | > 100 µM (inactive)
Cc1ccc(/N=C2\SC(=S)N(CCC[N+](C)(C)C)\C2=N/c2ccc(C)cc2)cc1 | 17.2 µM (inactive) | 10.3 µM (inactive) | 11 µM (inactive) | 14.2 µM (inactive) | 7.13 µM (inactive) | 21.1 µM (inactive) | 21.6 µM (inactive) | 12.8 µM (inactive) | 10.1 µM (inactive) | 18.1 µM (inactive) |  |  |  | 7.64 µM (inactive) | 2.94 µM (inactive) | 10.9 µM (inactive) | 18.1 µM (inactive)
CC1=C(C)C(=O)OC(C(C)(O)C2(O)CC3OC34C3CC(O)C56OC5C=CC(=O)C6(C)C3CCC42C)C1 (stereo unspecified) | 2.73 µM (inactive) | 1.5 µM (inactive) | 1.38 µM (inactive) | 1.82 µM (inactive) | 0.927 µM (active) | 1.27 µM (inactive) | 1.21 µM (inactive) | 1.61 µM (inactive) | 0.586 µM (active) | 1.45 µM (inactive) |  | 1.64 µM (inactive) | 2 µM (inactive) | 1.41 µM (inactive) | 3.78 µM (inactive) | 1.67 µM (inactive) | 0.762 µM (active)
Cc1nn2c(=O)c([N+](=O)[O-])c(/C=C/c3ccco3)nc2s1 |  | 61.4 µM (inactive) | 36.3 µM (inactive) | 36.2 µM (inactive) | 36.6 µM (inactive) | 64.7 µM (inactive) | 38.5 µM (inactive) | 26.9 µM (inactive) | 31.7 µM (inactive) | 36.2 µM (inactive) | 46.9 µM (inactive) | 36.4 µM (inactive) | 47.4 µM (inactive) | 48.6 µM (inactive) | 31.5 µM (inactive) | 25.9 µM (inactive) | 68.9 µM (inactive)
N#Cc1ccc(/C=C2\Cc3ccccc3C2=O)cc1 |  | > 100 µM (inactive) | > 100 µM (inactive) |  | > 100 µM (inactive) | > 100 µM (inactive) | > 100 µM (inactive) | > 100 µM (inactive) | > 100 µM (inactive) | > 100 µM (inactive) |  | > 100 µM (inactive) | > 100 µM (inactive) | > 100 µM (inactive) | > 100 µM (inactive) | > 100 µM (inactive) | 
COC1O[C@@H]2CCN3C(=O)[C@@H](OC(=O)c4ccc([N+](=O)[O-])cc4)[C@H]1C23 (stereo partly specified) | 64.7 µM (inactive) | > 100 µM (inactive) | > 100 µM (inactive) | > 100 µM (inactive) | > 100 µM (inactive) | > 100 µM (inactive) | > 100 µM (inactive) |  | > 100 µM (inactive) | > 100 µM (inactive) | > 100 µM (inactive) | > 100 µM (inactive) | > 100 µM (inactive) |  | > 100 µM (inactive) | > 100 µM (inactive) | 
CN1CNc2nc(N)n(C)c(=O)c2C1 |  |  |  | > 10 µM (inactive) | > 10 µM (inactive) | > 10 µM (inactive) |  | > 10 µM (inactive) | > 10 µM (inactive) | > 10 µM (inactive) | > 10 µM (inactive) | > 10 µM (inactive) | > 10 µM (inactive) |  | 7.46 µM (inactive) |  | > 10 µM (inactive)
O=C1C(NCCN2CCOCC2)=C(Cl)C(=O)c2ncccc21 | 2.03 µM (inactive) |  | 0.348 µM (active) | 2.08 µM (inactive) | 0.179 µM (active) | 0.469 µM (active) | 0.326 µM (active) | 0.178 µM (active) | 2.15 µM (inactive) | 0.445 µM (active) |  | 1.52 µM (inactive) | 1.18 µM (inactive) | 1.61 µM (inactive) | 1.12 µM (inactive) | 0.312 µM (active) | 0.564 µM (active)
